Test results: patent publication EP0162545A2, “Enhanced bioconversion processes” (BETZ EUROPE, INC., priority 1984, dated 1985)

Assays:
Assay type in all cases: cell-based
Klebsiella [1] = system: Klebsiella
Method: Experiments to look at the above conclusions in depth were performed. In these experiments, cultures of Klebsiella were challenged with various concentrations of BNS and the effects on C02 evolution from glucose, viability, TOC (Total Organic Carbon), TIC (Total Inorganic Carbon) production, removal, and DO (Dissolved Oxygen) removal were determined. Concentrations of BNS from 0.05 to 100 µg/mL were used. […] CO2 evolution decreased after 5 gg/mL. […] The viability dropped off after that with 99% inhibition at concentrations somewhere between 10 - 20 µg/mL. Organic carbon removal gave the most puzzling pattern. […] CO2 was produced, however, as reflected by the C02 blowoff experiments and the TIC data. The organic carbon being oxidized (removed) must have been cancelled out by an organic carbon addition caused by limited bacterial lysis. This phenomenon was investigated again. […] It appeared that 5 ppm BNS would be the maximum concentration that could be used for the desired effect, with the majority of favorable results occurring in the 0.05 - 2 ppm range.
At 0.05 µg/mL level, TOC removal was equivalent to the untreated control. When BNS concentrations of 0.5 µg/mL were used, TOC removal ceased and in the second series of experiments, TOC levels increased sharply at 0.5 - 2 µg/mL concentrations of BNS. Similar results were obtained when BNS was used to treat bacteria growing in the glucose salts medium. No increases in TOC removal were seen. The TOC concentration increased rapidly at BNS concentration of 0.5 - 2 ppm only to fall back to control levels at 5 ppm. The cells then added TOC to the medium again from 5 - 1000 µg/mL concentrations of BNS. […]
The experiments coordinating the measurements of C02 evolution, TOC reduction, viable count, and dissolved oxygen (DO) reduction were performed as follows: C02 evolution by Klebsiella was measured as described previously using a narrowed set of BNS concentrations. […] These cells were used to inoculate 19 mL quantities of fresh nutrient broth (1 mL inoculum) in baffled shake flasks. […]

Klebsiella [2] = system: Klebsiella; remark: listed apart in the source
Method: At 0.05 µg/mL level, TOC removal was equivalent to the untreated control. When BNS concentrations of 0.5 µg/mL were used, TOC removal ceased and in the second series of experiments, TOC levels increased sharply at 0.5 - 2 µg/mL concentrations of BNS. Similar results were obtained when BNS was used to treat bacteria growing in the glucose salts medium. No increases in TOC removal were seen. The TOC concentration increased rapidly at BNS concentration of 0.5 - 2 ppm only to fall back to control levels at 5 ppm. The cells then added TOC to the medium again from […] concentrations of BNS. This middle range spike in TOC (0.5-2 µg/mL BNS) was thought to be caused by excessive extra cellular polymer sloughing and limited cellular death as evidenced by the viability counts in the. 0.5 - 2 µg/mL BNS range. […] The dissolved oxygen concentration was decreased in the presence of BNS at concentrations of 0.05 - 1 µg/mL but at no concentration of BNS was the removal greater than the control level.
This set of experiments tends to make the BNS range of useful concentrations even lower than noted before. […] DO removal was seriously affected by concentrations of BNS that were ≥ 0.5 µg/mL. In short, it would appear that BNS would have to be used at concentrations ≤ 0.5 µg/mL in order to prevent the upset of a waste treatment facility by killing off the microbial populations. […]

Klebsiella pneumoniae = assay: microbe, parasite or virus in culture
Method: The first series of experiments involved the measurement of the amount of C02 evolved from aerobically growing cultures of the representative organism Klebsiella in the presence and absence of uncoupling agents. The known uncouplers 2, 4 dinitrophenol (DNP) and carbonyl cyanide m-chlorophenyl hydrazone (CCCP) were tested along with bis (tricholoromethyl) sulfone (TCMS) and beta-bromo-beta-nitrostyrene (BNS). It can be seen from the data that CCCP caused large increases in C02 evolution over the untreated controls at all concentrations used, with the largest increase (29%) at 5 µg/mL (24.4 uM). […] Bacterial counts also reflected the lack of uncoupling activity. […] Largest increase in C02 blowoff came at 50 ppm (32%). BNS gave a mixed pattern as opposed to those of DNP and CCCP. […] Even at 10 µg/mL, the bacterial count was reduced ~ 50% while still giving greater C02 blowoff than control cultures.
The procedure utilized to perform the first series of experiments was as follows: • Sealed vials containing 8 mL of minimal salts medium (Composition: K2HPO4-39, KH2PO4-lg, MgSO4-0.2g, (NN4)2SO4^-1g, D-glucose-5g (optional) in 1 liter. Autoclave and adjust pH to 6.8) lacking any carbon source were each injected with 1 mL of a suspension of Klebsiella pneumoniae. (Klebsiella was grown overnight, shaken at 37°C, in minimal salts medium containing glucose to a heavy cell suspension. The cells were centrifuged at 10,000 g and resuspended to a turbidity of 150 Klett units [Klett-Summerson photometer, #42 blue filter) in minimal salts medium [MSM], no glucose. These cells were again centrifuged, and resuspended in MSM at 1/10 the volume used previously. This 10X cell suspension was used as the standard inoculum for the vials.) The vials were- simultaneously injected with 1 mL of a 1 µ Ci/mL solution of ^14C-U-D glucose and the appropriate concentration of material to be tested. The compounds tested were fed at concentrations of […]. Controls received no test material and all vials were shaken during the course of the experiments at 37°C. Vials were read for C02 blowoff at the times indicated on the appropriate Tables. Standard bacterial counts were done on each vial after the end of each experimental series. [formula] [formula] [formula] [formula]

Question: For `O=[N+]([O-])C(Br)=Cc1ccccc1` [BNS, beta-bromo-beta-nitrostyrene], which “concentration for 99% inhibition of viability” value (Klebsiella [1]) is on record?
Answer: 10000 to 20000 ng/mL

Question: What about the “concentrations at which cells retained viability equal to the control level” value (Klebsiella [1]) of the same molecule?
Answer: up to 2 µg/mL

Question: What about the “concentrations of significant toxicity” value (Klebsiella [1]) of the same molecule?
Answer: 5000 to 10000 ng/mL

Question: And the “concentrations seriously affecting DO removal” value (Klebsiella [2])?
Answer: ≥ 500 ng/mL

Question: What about the toxic concentration (Klebsiella [2]) of the same molecule?
Answer: 0.5 to 1 µg/mL

Question: What about the “concentrations at which toxic properties become evident” value (Klebsiella pneumoniae) of the same molecule?
Answer: > 5000 ng/mL

Question: What about the activation at 1 µg/mL (Klebsiella pneumoniae; Klebsiella pneumoniae, 1.0 µ/mL, 14C-glucose, read-out: largest increase in C02 blowoff) of the same molecule?
Answer: 13%
